Results published in US8476005B2, “Microfluidic embedded polymer NEMS force sensors” (California Institute of Technology, priority 2008, dated 2013).

Assays:
[1] = tested on: individual fibroblasts (NIG-3T3); assay: Single-cell force response to a perturbing agent, measured with polymer NEMS force sensor; format: cell-based
Protocol: FIGS. 2a-2i illustrate NEMS-enabled single-cell force measurements with high temporal and force resolution. FIGS. 2a-2b provide optical images showing a microfluidics encapsulated force sensor, and FIG. 2c provides an electron micrograph thereof. […] The force data was acquired with a force resolution of 200 pN and a time resolution of 100 ms—25× and 300×, respectively, better than prior state of the art. FIGS. 2f-2h provide plots that show force signatures of two molecular-mechanical processes: small force oscillations, roughly 400 pN peak-to-peak, with a frequency that is monotonically dependent on the force being exerted by the lamellipodium shown in FIG. 2f, with FIG. 2g illustrating the linearity of frequency dependence.
NEMS force sensors can be used in phenotypic screening. […] Cells can then be exposed to one or more potential reagents, such as a pharmaceutical reagent, such as a drug, introduced in a carefully controlled manner using the integrated microfluidics, and the effects of the reagent(s) on the cells, such as the force exerted by the cells, is monitored. […]
The reagent can cause the cell to change in its physiology, such as conformation and/or structure, or change its force response to the reagent. […] The lengthening of the wire can then be detected. […]

cells = assay: Surface chemistry Petri dish experiments: cell adherence and spreading on treated surface; format: cell-based; conditions: surface treated with this agent only; polymer surface with gold pads
Protocol: FIGS. 3a-3d show results from surface chemistry Petri dish experiments. […] FIG. 3c-3d show results from complete surface chemistry process (SAM, Pluronics and fibronectin): cells are well spread on the gold and absent from the polymer A force sensor comprising a polymer surface with gold pads was used. The cells were to be attached to the pads and not to the polymer. At the beginning, both the pad and the polymer surfaces were hydrophobic, and water contact angle was about 80° on both. A self assembled monolayer was applied to the gold pads using thiol based chemistry. […] Monolayers were deposited from ethanol solutions […]. The monolayers left the gold surface hydrophilic, and water contact angle was about 25°. The polymer regions were coated with Pluronics […]). The surfaces were treated to Pluronics diluted in PBS (phosphate buffer solution), 0.02% to 1% by weight for 20-80 min. […] Pluronics left the surface hydrophilic. The gold regions were coated with Fibronectin. The surfaces were treated with fibronectin diluted in PBS, 5 ug/mL to 50 ug/mL for 20 min-4 hrs. […] FIGS. 3(c) and 3(d) show results from complete surface chemistry process (SAM, Pluronics and fibronectin), wherein cells were well spread on the gold and absent from the polymer. Thus, modifying surface chemistry allowed control of the cell adherence and/or spreading.

| Compound | large, stable, quantized force steps ([1]; cell's cytoskeleton perturbed with cytochalasin D and allowed to recover in growth media) | small force oscillations, peak-to-peak ([1]; lamellipodium perturbed with cytochalasin D and recovering in growth media, frequency monotonically dependent on force exerted) | cell attachment and spreading on surface (cells) |
| --- | --- | --- | --- |
| C=C1[C@@H](C)[C@H]2[C@H](Cc3ccccc3)NC(=O)[C@]23[C@H](OC(C)=O)/C=C/[C@@](C)(O)C(=O)[C@@H](C)C/C=C/[C@H]3[C@@H]1O [cytochalasin D, Cytochalasin D] | ~1 nN | roughly 400 pN |  |
| fibronectin |  |  | cells were spread everywhere |
